# In patent US9770445B2, “Sulfoximine substituted 5-fluoro-N-(pyridin-2-yl)pyridin-2-amine derivatives and their use as CDK9 kinase inhibitors” (BAYER PHARMA AKTIENGESELLSCHAFT, priority 2013, dated 2017):
# Biological target: T1, CDK2/CycE (Homo sapiens, UniProt P24941)
# T1 construct: GST; purchased ProQinase GmbH (Freiburg, Germany); host or cells: insect cells (Sf9)
# Assay: CDK2/CycE kinase assay (Method 2, TR-FRET)
# Format: biochemical
# Conditions: Method 2, 10 μM ATP
# Description: 2. CDK2/CycE Kinase Assay:
# CDK2/CycE-inhibitory activity of compounds of the present invention was quantified employing the CDK2/CycE TR-FRET assay as described in the following paragraphs:
# Recombinant fusion proteins of GST and human CDK2 and of GST and human CycE, expressed in insect cells (Sf9) and purified by Glutathion-Sepharose affinity chromatography, were purchased from ProQinase GmbH (Freiburg, Germany). As substrate for the kinase reaction biotinylated peptide biotin-Ttds-YISPLKSPYKISEG (C-terminus in amid form) was used which can be purchased e.g. form the company JERINI Peptide Technologies (Berlin, Germany).
# For the assay 50 nl of a 100 fold concentrated solution of the test compound in DMSO was pipetted into a black low volume 384 well microtiter plate (Greiner Bio-One, Frickenhausen, Germany), 2 μl of a solution of CDK2/CycE in aqueous assay buffer [50 mM Tris/HCl pH 8.0, 10 mM MgCl2, 1.0 mM dithiothreitol, 0.1 mM sodium ortho-vanadate, 0.01% (v/v) Nonidet-P40 (Sigma)] were added and the mixture was incubated for 15 min at 22° C. to allow pre-binding of the test compounds to the enzyme before the start of the kinase reaction. Then the kinase reaction was started by the addition of 3 μl of a solution of adenosine-tri-phosphate (ATP, 16.7 μM=>final conc. in the 5 μl assay volume is 10 μM) and substrate (1.25 μM=>final conc. in the 5 μl assay volume is 0.75 μM) in assay buffer and the resulting mixture was incubated for a reaction time of 25 min at 22° C. The concentration of CDK2/CycE was adjusted depending of the activity of the enzyme lot and was chosen appropriate to have the assay in the linear range, typical concentrations were in the range of 130 ng/mL. The reaction was stopped by the addition of 5 μl of a solution of TR-FRET detection reagents (0.2 μM streptavidine-XL665 [Cisbio Bioassays, Codolet, France] and 1 nM anti-RB(pSer807/pSer811)-antibody from BD Pharmingen [#558389] and 1.2 nM LANCE EU-W1024 labeled anti-mouse IgG antibody [Perkin-Elmer, product no. AD0077]) in an aqueous EDTA-solution (100 mM EDTA, 0.2% (w/v) bovine serum albumin in 100 mM HEPES/NaOH pH 7.0).
# The resulting mixture was incubated 1 h at 22° C. to allow the formation of complex between the phosphorylated biotinylated peptide and the detection reagents. Subsequently the amount of phosphorylated substrate was evaluated by measurement of the resonance energy transfer from the Eu-chelate to the streptavidine-XL. Therefore, the fluorescence emissions at 620 nm and 665 nm after excitation at 350 nm was measured in a TR-FRET reader, e.g. a Rubystar (BMG Labtechnologies, Offenburg, Germany) or a Viewlux (Perkin-Elmer). The ratio of the emissions at 665 nm and at […] was taken as the measure for the amount of phosphorylated substrate. The data were normalised (enzyme reaction without inhibitor=0% inhibition, all other assay components but no enzyme=100% inhibition).
row,IC50 [nM],Compound
1,142,"CS(=N)(=O)Cc1ccnc(Nc2cc(-c3ccc(F)c4ccoc34)c(F)cn2)c1 (single isomer, unassigned; (+)) [Example 14, (+)-5-Fluoro-4-(4-fluoro-1-benzofuran-7-yl)-N-{4-[(S-methylsulfonimidoyl)methyl]pyridin-2-yl}pyridin-2-amine]"
2,121,"CS(=N)(=O)Cc1ccnc(Nc2cc(-c3ccc(F)c4ccoc34)c(F)cn2)c1 (single isomer, unassigned; (-)) [Example 15, (−)-5-Fluoro-4-(4-fluoro-1-benzofuran-7-yl)-N-{4-[(S-methylsulfonimidoyl)methyl]pyridin-2-yl}pyridin-2-amine]"
